Reference: patent publication US20260285866A1, “MODULATORS OF TRPML, THEIR COMPOSITIONS AND METHODS OF USE” (Caraway Therapeutics, Inc., priority 2024, published 2026)
Each block holds one compound with its values, some of them ahead of it.

Legend:
Human TRPML1 = Human TRPML1 (Homo sapiens, UniProt Q9GZU1, L15A/L16A/L577A/L578A); experiment: Fluorescent TRPML1 assay (Fluo4-AM, HEK-293 Trex cells expressing hTRPML1); format: cell-based; details: fluorescent calcium assay, doxycycline-induced hTRPML1
Chain of Human TRPML1 (Q9GZU1 whole entry L15A/L16A/L577A/L578A): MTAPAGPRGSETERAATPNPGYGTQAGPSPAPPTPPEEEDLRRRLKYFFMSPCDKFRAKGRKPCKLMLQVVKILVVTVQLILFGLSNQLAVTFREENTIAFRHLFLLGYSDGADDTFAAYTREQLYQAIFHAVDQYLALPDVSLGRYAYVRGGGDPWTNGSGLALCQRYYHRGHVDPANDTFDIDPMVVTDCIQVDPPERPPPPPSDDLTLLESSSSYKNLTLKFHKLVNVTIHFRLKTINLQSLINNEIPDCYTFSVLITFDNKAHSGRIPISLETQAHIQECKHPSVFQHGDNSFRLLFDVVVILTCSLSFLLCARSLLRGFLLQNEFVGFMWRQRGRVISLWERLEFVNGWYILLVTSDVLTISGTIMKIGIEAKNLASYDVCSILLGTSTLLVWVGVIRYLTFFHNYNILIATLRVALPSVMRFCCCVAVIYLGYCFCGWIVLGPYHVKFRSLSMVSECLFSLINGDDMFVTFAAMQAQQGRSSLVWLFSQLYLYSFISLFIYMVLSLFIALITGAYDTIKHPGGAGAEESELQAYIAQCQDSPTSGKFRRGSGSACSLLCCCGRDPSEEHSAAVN
Protocol: Example 27. Fluorescent TRPML Assays
(§1) HEK-293 Trex cells were stably transfected with a construct consisting of the human coding sequence for TRPML1 cloned into the tet-inducible plasmid pCDNA5 T/O. Mutations were introduced into the TRPML1 sequence to facilitate expression on the cell surface (Silvia Vergarajauregui, Rosa Puertollano Traffic. 2006 March; 7(3): 337-353). Briefly, the cells are cultured in 150 mm round tissue culture dishes containing 20 mL of media. The day before the assay the cells are rinsed with DPBS-Ca-Mg and then treated briefly with Trypsin-EDTA. The Trypsin-EDTA is diluted with growth media, and cells are counted. 38×10^6 cells are re-plated into 150 mm round tissue culture dishes in media containing 0.5 μg/mL doxycycline to induce expression of hTRPML1.
(§2) The day of the experiment cells are lifted from the plates as above and collected by centrifugation. The cells are then suspended in dye loading buffer consisting of Ringer's solution supplemented with 0.1% Pluronic Acid and 1 micromolar Fluo4-AM dye. Cells are loaded for ~60 minutes in the dark with occasional mixing. The cells are collected by centrifugation, the loading media aspirated, and the cells resuspended in 25 mL Ringer's solution and incubated ~60 minutes in the dark. The cells are again collected by centrifugation, rinsed in Ringer's Solution and resuspended to 0.2×10^6 cells/mL in modified Ringer's solution containing 10 mM calcium.
(§3) Compounds are dissolved to a concentration of 10 millimolar with DMSO. Compound plates are created by dispensing compounds into 384 well black wall clear bottom plates (Greiner 781091). Positive and negative controls are included on each plate. Typically, different amounts of each compound are tested ranging from 100 nanoMoles (20 micromolar final concentration) decreasing in half-log steps to 31 picoMoles (6 nanomolar final concentration). Each concentration is typically tested in triplicate.
(§4) 50 microliters of dye-loaded cells are dispensed into each well of the compound assay plate created above. The fluorescence in each well is then determined with an excitation wavelength of 480 nm and an emission wavelength of 540 nm using either a Molecular Devices SpectraMax multimode plate reader or a Hamamatsu FDSS/uCell plate imager.
(§5) The resulting fluorescence for each well is exported as an ascii file and loaded into our LIMS for analysis. The percent activity of each compound at each concentration is determined by comparison to the positive and negative control wells included in each plate.
(§6) EC50 values were calculated using a non-linear regression of Prism. In the table, “A” indicates an EC50 of less than 100 nM, “B” indicates an EC50 range from 100 nM to 500 nM: “C” indicates an EC50 range from 500 nM to 2 μM; and “D” indicates an EC50 greater than 2 μM.

Human TRPML3 = biological target: T1, Human TRPML3 (Homo sapiens, UniProt Q8TDD5); experiment: Fluorescent TRPML3 assay (as for TRPML1); format: cell-based; details: fluorescent calcium assay as for TRPML1, TRPML3 subtype
T1 construct: expressed in transfected cells
T1 sequence (Q8TDD5 1-553): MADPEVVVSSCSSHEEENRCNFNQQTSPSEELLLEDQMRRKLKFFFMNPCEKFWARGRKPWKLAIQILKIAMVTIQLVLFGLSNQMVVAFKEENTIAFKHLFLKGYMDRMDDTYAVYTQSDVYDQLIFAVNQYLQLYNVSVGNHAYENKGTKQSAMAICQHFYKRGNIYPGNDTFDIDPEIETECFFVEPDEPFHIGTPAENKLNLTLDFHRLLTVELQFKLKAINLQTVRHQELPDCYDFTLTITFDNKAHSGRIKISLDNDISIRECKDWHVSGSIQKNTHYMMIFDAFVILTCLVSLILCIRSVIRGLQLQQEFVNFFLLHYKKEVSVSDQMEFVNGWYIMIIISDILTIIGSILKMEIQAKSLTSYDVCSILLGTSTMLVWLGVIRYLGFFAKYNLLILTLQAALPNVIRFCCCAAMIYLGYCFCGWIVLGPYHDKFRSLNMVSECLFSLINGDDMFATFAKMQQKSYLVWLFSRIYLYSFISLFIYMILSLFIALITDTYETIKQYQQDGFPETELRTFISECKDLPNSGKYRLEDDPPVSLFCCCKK
Protocol: as §1, §2, §3, §4, §5
Assays for TRPML2 and TRPML3 were performed as above for TRPML1, by substituting the appropriate TRPML2 or TRPML3 subtype for the TRPML1.
as §6

SMILES: C[C@@H]1CN(c2ncnc3c2c(-c2ccncc2)cn3-c2cccc(F)c2)[C@@H](C)CN1C(=O)C(C)(C)O [Compound 139, 1-((2R,5S)-4-(7-(3-fluorophenyl)-5-(pyridin-4-yl)-7H-pyrrolo[2,3-d]pyrimidin-4-yl)-2,5-dimethylpiperazin-1-yl)-2-hydroxy-2-methylpropan-1-one]
EC50 (Human TRPML1): > 2000 nM
EC50 (Human TRPML3): > 2000 nM

SMILES: C[C@@H]1CN(c2ncnc3c2c(C2CC2)cn3-c2cc(C#N)ccn2)[C@@H](C)CN1C(=O)CC(C)(C)O [Compound 160, 2-(5-cyclopropyl-4-((2S,5R)-4-(3-hydroxy-3-methylbutanoyl)-2,5-dimethylpiperazin-1-yl)-7H-pyrrolo[2,3-d]pyrimidin-7-yl)isonicotinonitrile]
EC50 (Human TRPML1): 500 to 2000 nM
EC50 (Human TRPML3): 500 to 2000 nM

SMILES: C[C@@H]1CN(c2ncnc3c2c(-c2ccccc2F)cn3-c2cc(C#N)ccn2)[C@@H](C)CN1C(=O)C1(O)CCC1 [Compound 114, 2-(5-(2-fluorophenyl)-4-((2S,5R)-4-(1-hydroxycyclobutane-1-carbonyl)-2,5-dimethylpiperazin-1-yl)-7H-pyrrolo[2,3-d]pyrimidin-7-yl)isonicotinonitrile]
EC50 (Human TRPML1): < 100 nM
EC50 (Human TRPML3): 100 to 500 nM

SMILES: C[C@@H]1CN(c2ncnc3c2c(N2CCC2)cn3-c2cc(C#N)ccn2)[C@@H](C)CN1C(=O)C(C)(C)O [Compound 107, 2-(5-(azetidin-1-yl)-4-((2S,5R)-4-(2-hydroxy-2-methylpropanoyl)-2,5-dimethylpiperazin-1-yl)-7H-pyrrolo[2,3-d]pyrimidin-7-yl)isonicotinonitrile]
EC50 (Human TRPML1): 100 to 500 nM
EC50 (Human TRPML3): > 2000 nM

More lines, now with the values ahead:

EC50 (Human TRPML1): 100 to 500 nM
EC50 (Human TRPML3): 500 to 2000 nM
SMILES: CC(C)[C@H]1CN(C(=O)C(C)(C)O)[C@H](C)CN1c1ncnc2c1c(-c1ccccc1)cn2-c1cc(C#N)ccn1 [Compound 131, 2-(4-((2S,5R)-4-(2-hydroxy-2-methylpropanoyl)-2-isopropyl-5-methylpiperazin-1-yl)-5-phenyl-7H-pyrrolo[2,3-d]pyrimidin-7-yl)isonicotinonitrile]

EC50 (Human TRPML1): > 2000 nM
EC50 (Human TRPML3): > 2000 nM
SMILES: C[C@@H]1CN(c2ncnc3c2c(-c2ccccc2F)cn3-c2cc(C#N)ccn2)[C@@H](C)CN1C(=O)C1(O)CC1 [Compound 157, 2-(5-(2-fluorophenyl)-4-((2S,5R)-4-(1-hydroxycyclopropane-1-carbonyl)-2,5-dimethylpiperazin-1-yl)-7H-pyrrolo[2,3-d]pyrimidin-7-yl)isonicotinonitrile]

EC50 (Human TRPML1): 500 to 2000 nM
EC50 (Human TRPML3): > 2000 nM
SMILES: C[C@H]1CN(C(=O)C(C)(C)O)[C@H](CO)CN1c1ncnc2c1c(-c1ccccc1F)cn2-c1cc(C#N)ccn1 [Compound 168, 2-(5-(2-fluorophenyl)-4-((2S,5S)-4-(2-hydroxy-2-methylpropanoyl)-5-(hydroxymethyl)-2-methylpiperazin-1-yl)-7H-pyrrolo[2,3-d]pyrimidin-7-yl)isonicotinonitrile]

EC50 (Human TRPML1): 500 to 2000 nM
EC50 (Human TRPML3): 500 to 2000 nM
SMILES: CC(C)(O)C(=O)N1CCN(c2ncnc3c2c(-c2ccccc2)cn3-c2cc(C#N)ccn2)[C@@H](C2CC2)C1 [Compound 113]

EC50 (Human TRPML1): < 100 nM
EC50 (Human TRPML3): 500 to 2000 nM
SMILES: C[C@@H]1CN(c2ncnc3c2c(-c2ccccc2)cn3-c2cc(C#N)ccn2)[C@@H](C)CN1C(=O)C1(O)CCC1 [Compound 109, 2-(4-((2S,5R)-4-(1-hydroxycyclobutane-1-carbonyl)-2,5-dimethylpiperazin-1-yl)-5-phenyl-7H-pyrrolo[2,3-d]pyrimidin-7-yl)isonicotinonitrile]

EC50 (Human TRPML1): 500 to 2000 nM
EC50 (Human TRPML3): 500 to 2000 nM
SMILES: C[C@H]1CN(C(=O)C2(O)CCC2)CCN1c1ncnc2c1c(-c1ccccc1F)cn2-c1cc(C#N)ccn1 [Compound 117, (S)-2-(5-(2-fluorophenyl)-4-(4-(1-hydroxycyclobutane-1-carbonyl)-2-methylpiperazin-1-yl)-7H-pyrrolo[2,3-d]pyrimidin-7-yl)isonicotinonitrile]
